According to patent US11918582B2 (RAPT Therapeutics, Inc., priority 2021, dated 2024):
Counter-ions that a name gives are not always drawn.

Target: T1, human HPK1 (MAP4K1) (Homo sapiens, UniProt Q92918)
T1 construct: Recombinant human HPK1 kinase domain was obtained from ThermoFisher (Cat. #PV6357) and SignalChem (Cat. #M23-11G); purchased ThermoFisher; SignalChem PV6357; M23-11G
T1 sequence (Q92918 17-274 limits assumed): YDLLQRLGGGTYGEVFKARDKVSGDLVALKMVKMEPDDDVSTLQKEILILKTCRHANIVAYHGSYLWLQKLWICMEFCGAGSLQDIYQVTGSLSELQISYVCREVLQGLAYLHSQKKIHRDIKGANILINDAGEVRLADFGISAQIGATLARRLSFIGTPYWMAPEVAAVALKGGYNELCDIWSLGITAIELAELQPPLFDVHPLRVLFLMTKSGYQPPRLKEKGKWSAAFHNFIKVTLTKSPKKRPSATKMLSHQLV
Assay: Biochemical assay for activity against HPK1 (ADP-Glo, MBP substrate)
Settings: recombinant human HPK1 kinase domain, 1 nM enzyme, ADP-Glo luminescence
Excerpt: These compounds are made by the synthetic methods described earlier herein. Example 227 Biochemical Assay for Testing Compounds for Activity against HPK1
The enzymatic activity of human HPK1 (MAP4K1) was monitored in a biochemical assay in the presence or absence of compounds, using a peptide substrate (myelin basic protein, MBP), with an ADP-Glo assay kit (Promega, Cat. #V9103). An increase in phosphorylation of the peptide by HPK1 was indicative of its kinase activity.
Recombinant human HPK1 kinase domain was obtained from ThermoFisher (Cat. #PV6357) and SignalChem (Cat. #M23-11G). A 1 nM HPK1 kinase enzyme solution was prepared from the HPK1 stock received from the commercial supplier using an assay buffer containing 50 mM HEPES (4-(2-hydroxyethyl)-1-piperazineethanesulfonic acid) pH 7.5 (Fisher Scientific, Cat. #H1035), 150 mM NaCl (Fisher Scientific, Cat. #50843067), 3 mM TCEP-HCl (Tris(2-carboxyethyl)phosphine hydrochloride; Fisher Scientific, Cat. #PIPG82080), 10 mM MgCl2 (Fisher Scientific, Cat. #AM9530G), 0.005% Tween-20 (Fisher Scientific, Cat. #BP337500) and 0.01% BSA (bovine serum albumin; ThermoFisher, Cat. #15260037), in ultra-pure water. The final concentration of the assay buffer was 770 nM. A 5 mM stock solution of the peptide substrate was prepared using […] MBP (Myelin Basic Protein, Active Motif, Cat. #31314), 10 mM ATP (adenosine 5′-triphosphate; Sigma-Aldrich, Cat. #GE27-2056-01) and of assay buffer.
Test compounds were dissolved in DMSO (dimethyl sulfoxide) at 10 mM and then serial dilutions were prepared using a ViaFlow assist multichannel dispenser (Integra ViaFlo). 20 nL of test compounds at various concentrations were dispensed into a 1536-well assay plate (Corning Cat. #7247) using an Echo Nanoliter dispenser (Labcyte ECHO 550). […] of a 1 nM solution of HPK1 kinase enzyme diluted in assay buffer was added to the compound-containing plate using a Mantis Microliter dispenser (Formulatrix Mantis), covered with a lid, and incubated for 15 minutes at room temperature. 50 nL of a 5 mM stock solution of the peptide substrate (MBP) were added using the Echo Nanoliter dispenser. The plate was covered with a lid, centrifugated at 500 rpm for 1 minute and incubated for 2 hours at room temperature. […] of ADP-Glo reagent A was added using the Mantis Microliter dispenser, centrifugated at 500 rpm for 30 seconds and incubated for 40 minutes at room temperature. […] of ADP-Glo reagent B was added using the Mantis Microliter dispenser, centrifugated at 500 rpm for 30 seconds and incubated for 30 minutes at room temperature. Peptide phosphorylation was measured by luminescence on an Envision plate reader (PerkinElmer).
The HPK1 biochemical IC50 activity levels of the compounds of Examples 1-225 were tested using this assay and are shown in Table 2.

| IC50 | SMILES |
| --- | --- |
| > 251 nM | COc1cc2c(cc1Nc1ncc3cnn(C4CCC(C)(CO)CC4)c3n1)CN(C)CC2 (mixture of isomers) [Example 75, [4-[6-[(6-methoxy-2-methyl-3,4-dihydro-1H-isoquinolin-7-yl)amino]pyrazolo[3,4-d]pyrimidin-1-yl]-1-methyl-cyclohexyl]methanol] |
| < 100 nM | COc1cc2c(cc1Nc1ncc3cnn([C@H]4CCC[C@H](C(=O)O)C4)c3n1)CN(C)CC2 (racemic) [Example 28, rac-(1S,3S)-3-(6-((6-methoxy-2-methyl-1,2,3,4-tetrahydroisoquinolin-7-yl)amino)-1H-pyrazolo[3,4-d]pyrimidin-1-yl)cyclohexane-1-carboxylic acid] |
| < 100 nM | COc1cc2c(cc1Nc1ncc3cnn([C@H]4CCC[C@H](C(N)=O)C4)c3n1)CN(C)CC2 (racemic) [Example 29, rac-(1S,3S)-3-(6-((6-methoxy-2-methyl-1,2,3,4-tetrahydroisoquinolin-7-yl)amino)-1H-pyrazolo[3,4-d]pyrimidin-1-yl)cyclohexane-1-carboxamide] |
| 100 to 250 nM | COc1cc2c(cc1Nc1ncc3cnn([C@H]4CCCC[C@@H]4C)c3n1)CN(C)CC2 (racemic) [Example 30, rac-6-methoxy-2-methyl-N-(1-((1S,2S)-2-methylcyclohexyl)-1H-pyrazolo[3,4-d]pyrimidin-6-yl)-1,2,3,4-tetrahydroisoquinolin-7-amine] |
| 100 to 250 nM | COc1cc2c(cc1Nc1ncc3cnn([C@H]4CC[C@H](C(=O)O)C4)c3n1)CN(C)CC2 (racemic) [Example 41, rac-(1S,3S)-3-(6-((6-methoxy-2-methyl-1,2,3,4-tetrahydroisoquinolin-7-yl)amino)-1H-pyrazolo[3,4-d]pyrimidin-1-yl)cyclopentane-1-carboxylic acid] |
| < 100 nM | COc1cc2c(cc1Nc1ncc3cnn([C@H]4CC[C@H](C(N)=O)C4)c3n1)CN(C)CC2 (racemic) [Example 42, rac-(1S,3S)-3-(6-((6-methoxy-2-methyl-1,2,3,4-tetrahydroisoquinolin-7-yl)amino)-1H-pyrazolo[3,4-d]pyrimidin-1-yl)cyclopentane-1-carboxamide] |
| < 100 nM | CNC(=O)[C@H]1CC[C@H](n2ncc3cnc(Nc4cc5c(cc4OC)CCN(C)C5)nc32)C1 (racemic) [Example 43, rac-(1S,3S)-3-(6-((6-methoxy-2-methyl-1,2,3,4-tetrahydroisoquinolin-7-yl)amino)-1H-pyrazolo[3,4-d]pyrimidin-1-yl)-N-methylcyclopentane-1-carboxamide] |
| < 100 nM | COc1cc2c(cc1Nc1ncc3cnn([C@H]4CCC[C@H](O)C4)c3n1)CN(C)CC2 (racemic) [Example 44, rac-(trans)-3-(6-((6-methoxy-2-methyl-1,2,3,4-tetrahydroisoquinolin-7-yl)amino)-1H-pyrazolo[3,4-d]pyrimidin-1-yl)cyclohexan-1-ol] |
| < 100 nM | COc1cc2c(cc1Nc1ncc3cnn([C@H]4CC[C@H](CO)C4)c3n1)CN(C)CC2 (racemic) [Example 48, rac-(trans-3-(6-((6-methoxy-2-methyl-1,2,3,4-tetrahydroisoquinolin-7-yl)amino)-1H-pyrazolo[3,4-d]pyrimidin-1-yl)cyclopentyl)methanol] |
| < 100 nM | COc1cc2c(cc1Nc1ncc3cnn([C@H]4CCC[C@H](C(=O)N(C)C)C4)c3n1)CN(C)CC2 (racemic) [Example 59, rac-(trans)-3-(6-((6-methoxy-2-methyl-1,2,3,4-tetrahydroisoquinolin-7-yl)amino)-1H-pyrazolo[3,4-d]pyrimidin-1-yl)-N,N-dimethylcyclohexane-1-carboxamide] |
| < 100 nM | COc1cc2c(cc1Nc1ncc3cnn(C[C@@H]4CCC[C@H]4C(N)=O)c3n1)CN(C)CC2 (racemic) [Example 159, racemic trans-2-[[6-[(6-methoxy-2-methyl-3,4-dihydro-1H-isoquinolin-7-yl)amino]pyrazolo[3,4-d]pyrimidin-1-yl]methyl]cyclopentanecarboxamide] |
| < 100 nM | COc1cc2c(cc1Nc1ncc3cnn(C[C@@H]4CCC[C@H]4CO)c3n1)CN(C)CC2 (racemic) [Example 160, Rac-trans-2-[[6-[(6-methoxy-2-methyl-3,4-dihydro-1H-isoquinolin-7-yl)amino]pyrazolo[3,4-d]pyrimidin-1-yl]methyl]cyclopentyl]methanol] |
| < 100 nM | CN1CCc2ccc(Nc3ncc4cnn(C[C@@H]5CCC[C@H]5C(=O)O)c4n3)cc2C1 (racemic) [Example 161, Rac-trans-2-[[6-[(2-methyl-3,4-dihydro-1H-isoquinolin-7-yl)amino]pyrazolo[3,4-d]pyrimidin-1-yl]methyl]cyclopentanecarboxylic Acid] |
| < 100 nM | COc1cc2c(cc1Nc1ncc3cnn(C[C@@H]4CCC[C@@H]4C(=O)O)c3n1)CN(C)CC2 (racemic) [Example 162, Rac-cis-2-[[6-[(6-methoxy-2-methyl-3,4-dihydro-1H-isoquinolin-7-yl)amino]pyrazolo[3,4-d]pyrimidin-1-yl]methyl]cyclopentanecarboxylic Acid] |
| < 100 nM | COc1cc2c(cc1Nc1ncc3cnn(C[C@@H]4CCCC[C@H]4CO)c3n1)CN(C)CC2 (racemic) [Example 165, [rac-trans-2-[[6-[(6-methoxy-2-methyl-3,4-dihydro-1H-isoquinolin-7-yl)amino]pyrazolo[3,4-d]pyrimidin-1-yl]methyl]cyclohexyl]methanol] |
| < 100 nM | COc1cc2c(cc1Nc1ncc3cnn(C[C@@H]4CCCC[C@@H]4CO)c3n1)CN(C)CC2 (racemic) [Example 166, [rac-cis-2-[[6-[(6-methoxy-2-methyl-3,4-dihydro-1H-isoquinolin-7-yl)amino]pyrazolo[3,4-d]pyrimidin-1-yl]methyl]cyclohexyl]methanol] |
| < 100 nM | COc1cc2c(cc1Nc1ncc3cnn(C[C@@H]4CCC[C@H]4C(=O)O)c3n1)CN(C)CC2 (racemic) [Example 182, racemic trans-2-((6-((6-methoxy-2-methyl-1,2,3,4-tetrahydroisoquinolin-7-yl)amino)-1H-pyrazolo[3,4-d]pyrimidin-1-yl)methyl)cyclopentane-1-carboxylic Acid] |
| < 100 nM | COc1cc2c(cc1Nc1ncc3cnn(C[C@@H]4C[C@@H]4C(=O)O)c3n1)CN(C)CC2 (racemic) [Example 188, (cis)-2-((6-((6-methoxy-2-methyl-1,2,3,4-tetrahydroisoquinolin-7-yl)amino)-1H-pyrazolo[3,4-d]pyrimidin-1-yl)methyl)cyclopropane-1-carboxylic Acid] |
| < 100 nM | COc1cc2c(cc1Nc1ncc3cnn(CC4CCCOC4)c3n1)CN(C)CC2 (racemic) [Example 200, (S)-6-methoxy-2-methyl-N-(1-((tetrahydro-2H-pyran-3-yl)methyl)-1H-pyrazolo[3,4-d]pyrimidin-6-yl)-1,2,3,4-tetrahydroisoquinolin-7-amine and (R)-6-methoxy-2-methyl-N-(1-((tetrahydro-2H-pyran-3-yl)methyl)-1H-pyrazolo[3,4-d]pyrimidin-6-yl)-1,2,3,4-tetrahydroisoquinolin-7-amine racemic mixture] |
| < 100 nM | COc1cc2c(cc1Nc1ncc3cnn(CC4CCCCO4)c3n1)CN(C)CC2 (racemic) [Example 201, (S)-6-methoxy-2-methyl-N-(1-((tetrahydro-2H-pyran-2-yl)methyl)-1H-pyrazolo[3,4-d]pyrimidin-6-yl)-1,2,3,4-tetrahydroisoquinolin-7-amine and (R)-6-methoxy-2-methyl-N-(1-((tetrahydro-2H-pyran-2-ylmethyl)-1H-pyrazolo[3,4-d]pyrimidin-6-yl)-1,2,3,4-tetrahydroisoquinolin-7-amine Hydrochloride, Racemic Mixture] |
